Where a SMILES comes first, the peptide text is derived from it. Where no end group is shown, it is not given here. [ ]: non-standard residue; d: D form.
Columns and labels:
[1] = Stability (half-life) of JNK inhibitors in human serum, UPLC-MS
Procedure: The experiment was performed as described by Tugyi et al. (Proc Natl Acad Sci USA, 2005, 413-418). The remaining intact peptide was quantified by UPLC-MS.

[2] = tested on: primary rat lymph-nodes purified T cells; assay: CD3/CD28-induced IL-2 release in primary rat lymph-nodes purified T cells; assay type: cell-based; details: inhibitor added 1 h before CD3/CD28 (2 μg/mL), supernatant after 24 h
Procedure: Control rat were sacrificed and lymph-nodes were harvested. T cells further were purified (using magnetic negative selection) and plated into 96-well plates at 200,000 cells/well. Cells were treated with anti-rat CD3 and anti-rat CD28 antibodies (2 μg/mL). JNK inhibitor with SEQ ID NO: 172 was added to the cultures 1 h before CD3/CD28 treatment and IL-2 release was assessed in supernatant 24 h after treatment.
Control animal were sacrificed, lymph nodes (LN) were harvested and kept in complete RPMI medium. LN were smashed with complete RPMI on 70 μm filter using a 5 ml piston. A few drops of media were added to keep strainer wet. Cells were centrifuged for 7 min at 450 g and 4° c. Pellet was resuspended in 5 ml fresh medium. Cells were passed again through cell strainer. An aliquot of cells was counted, while cells were centrifuged again 10 min at 1400 rpm and 4° c. Cells were resupended in MACS buffer (80 μl of MACS buffer per 10^7 cells). 10 μl of anti-rat MHC microbeads were added per 10 million cells, cells were incubated for 15 min at 4°-8° C. Cells were washed with 15 ml MACS buffer and centrifuge for 7 min at 700 g and 4° C. […] Resuspended cells were counted and plated at density of 200000 cells/well in 100 μl of complete medium. […] Cytokines were then measured using standard Elisa kits. Results are expressed as pg/ml of supernatant of the measured cytokine. […]

[3] = molecular target: T1, His-JNK1 (Homo sapiens, UniProt P45983); assay: AlphaScreen assay, inhibition of JNK1 mediated phosphorylation of biotin-cJun substrate; assay type: biochemical; details: compared with L-TAT-IB1; JNK isoform not stated
T1 construct: His; purchased Upstate 14-327
T1 sequence (P45983 1-384 isoform P45983-2): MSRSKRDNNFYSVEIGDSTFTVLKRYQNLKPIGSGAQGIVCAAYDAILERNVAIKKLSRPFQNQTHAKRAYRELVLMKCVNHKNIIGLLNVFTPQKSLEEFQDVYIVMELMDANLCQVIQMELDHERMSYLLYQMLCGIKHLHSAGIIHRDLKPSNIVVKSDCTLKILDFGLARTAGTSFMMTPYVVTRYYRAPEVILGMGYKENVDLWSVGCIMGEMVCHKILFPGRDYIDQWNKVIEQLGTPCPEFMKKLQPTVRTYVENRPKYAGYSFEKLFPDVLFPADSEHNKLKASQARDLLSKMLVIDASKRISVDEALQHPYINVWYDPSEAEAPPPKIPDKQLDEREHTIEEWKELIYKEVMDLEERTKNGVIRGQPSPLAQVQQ
Procedure: In the following the standard operating procedure will be set forth describing how the Inhibitory efficacy of JNK inhibitors according to the present invention was measured. The method allows to measure in vitro, in a non radioactive standardized assay, the ability of a candidate compound to decrease the phosphorylation of the c-Jun specific substrate by JNK. Moreover, it will be illustrated how to determine the inhibitory effect (IC50) and the Ki of a chosen compound for JNK.
• His-JNK1 (ref 14-327, Upstate, 10 μg in 100 μl: concentration: 2.2 μM) 5 nM final • His-JNK2 (ref 14-329, Upstate, 10 μg in 100 μl: concentration: 2 μM) 5 nM final • His-JNK3 (ref 14-501, Upstate, 10 μg in 100 μl: concentration: 1.88 μM) 5 nM final • Anti-Phospho-cJun (ref 06-828, Upstate, lot DAM1503356, concentration: 44.5 μM) 10 nM final • Biotin-cJun (29-67): • sequence: Biotin-[…] […]
The bioluminescent energy transfer was read on the Fusion Alpha Plate reader (Perkin Elmer). […]

[4] = tested on: Hela cells; assay: Internalization of TAT derived transporters, 24 hours incubation, fluorescence of cell extracts; assay type: cell-based; details: FIG. 6; Y in position 2
Procedure: The transporter sequences analyzed correspond to SEQ ID NOs: 52-94 plus SEQ ID NOs: 45, 47, 46, 43 and 99 (FIG. 6a) and SEQ ID NOs: 100-147 (FIG. 6b). […] Hela cells were incubated 24 hours in 96 well plate with […] of the respective transporters. The cells were then washed twice with an acidic buffer (0.2M Glycin, 0.15M NaCl, pH 3.0) and twice with PBS. Cells were broken by the addition of RIPA lysis buffer. The relative amount of internalized peptide was then determined by reading the fluorescence intensity (Fusion Alpha plate reader; PerkinElmer) of each extract followed by background subtraction.
Hela cells were incubated 24 hours in 96 well plate with […] of the r3-L-TAT-derived transporters. The cells were then washed twice with an acidic buffer (0.2M Glycin, 0.15M NaCl, pH 3.0) and twice with PBS. Cells were broken by the addition of RIPA lysis buffer. The relative amount of internalized peptide was then determined by reading the fluorescence intensity (Fusion Alpha plate reader; PerkinElmer) of each extract followed by background subtraction

With CC(C)C[C@H](NC(=O)[C@H](CC(N)=O)NC(=O)[C@H](CC(C)C)NC(=O)[C@@H](NC(=O)[C@@H](C)NC(=O)[C@@H]1CCCN1C(=O)[C@H](CCCNC(=N)N)NC(=O)[C@@H](CCCCN)NC(=O)[C@@H]1CCCN1C(=O)[C@H](CCCNC(=N)N)NC(=O)[C@@H](CCCNC(=N)N)NC(=O)[C@H](CCCNC(=N)N)NC(=O)[C@H](CCCNC(=N)N)NC(=O)[C@H](CCC(N)=O)NC(=O)[C@@H](CCCNC(=N)N)NC(=O)[C@H](CCCNC(=N)N)NC(=O)[C@H](CCCCN)NC(=O)[C@H](CCCCN)NC(=O)[C@H](N)CCCNC(=N)N)[C@@H](C)O)C(=O)N[C@H](Cc1ccccc1)C(N)=O [SEQ ID NO: 172, rKKRrQRRrRPkRPaTLNLf] (H-[dR]KKR[dR]QRR[dR]RP[dK]RP[dA]TLNL[dF]-NH2; N-terminus assumed) the “time until completely degraded” value ([1]; human serum (50%; 10 and 50% in PBS 1×), 0.1 mM peptide) was 14 days.
For “dqsrpvqpflnlttprkprpprrrqrrkkrg ([dD][dQ][dS][dR][dP][dV][dQ][dP][dF][dL][dN][dL][dT][dT][dP][dR][dK][dP][dR][dP][dP][dR][dR][dR][dQ][dR][dR][dK][dK][dR]G) [SEQ ID NO: 197]”, the “CD3/CD28-induced IL-2 release” value [2] was “Dose-dependent inhibition”, the “sensitivity to proteolytic degradation” value [1] was “extremely stable towards proteolytic digestion” and the “inhibitory capacity (JNK inhibition, FIG. 4)” value [3] was “significant decrease in inhibitory capacity in comparison to L-TAT-IB1”.
With “rYKRrQRRr ([dR]YKR[dR]QRR[dR]) [SEQ ID NO: 142]” the transporter activity [4] was “highest transporter activity”.

— patent publication US8981052B2, “JNK inhibitor molecules” (Xigen Inflammation Ltd., priority 2010, dated 2015)
